As a reminder, the zone of inhibition is the extent of the growth-free halo in a diffusion test.

Zone quality qualifier and zone of inhibition data for one compound are collected here from patent publication US5244795A, “Processes for preparing cholesterol lowering compounds” (Merck & Co., Inc., priority 1992, dated 1993).

Experiment in all cases: FISP disc diffusion assay
Assay type in all cases: cell-based
For orientation: Agar diffusion results depend on both activity and mobility in agar.

One assay concerns Alternaria solani. Further details: key: F: clear zone, fuzzy edges; S: slightly hazy zone (some growth observed throughout zone); H: hazy zone (considerable growth observed throughout zone); V: very hazy zone (zone of inhibition is barely discernable); R: zone displays a ring of resistant growth; no qualifier: clear zone throughout, sharp edges. The settings on record: 250 μg/ml in CH2Cl2. From the text: (§1) The FISP assay employs disc diffusion susceptibility testing methods to generate a spectrum of activity against a panel of representative yeasts, filamentous fungi and bacteria.
(§2) The filamentous fungi used in the assay were Penicillium sp. Aspergillus niger, Trichoderma sp., Phoma sp., Trichoderma lignorum, Fusarium oxysporum, Ustilago maydis, Ceratocystis ulmi, Alternaria soloni, Verticillium serrae, Botrytis allii, Scopulariopsis communis, Cephalosporium sp., Cercospora beticola, Rhizomucor miehei, Aspergillus flavus and Aspergillus fumigatus.
(§3) For carrying out the assay, seeded assay plates are prepared in the following manner according to the type of assay strain.
(§4) Inocula for filamentous fungi are prepared by scraping the surface of stock plates maintained on potato dextrose agar with a moistened sterile dacron swab. The spores and mycelia are then suspended in 10 milliliters of sterile potato dextrose broth and adjusted to 65 percent transmission at 660 nm.
(§5) Assay plates for the yeasts and filamentous fungi are prepared by diluting the inoculum into appropriate molten agar medium, cooled to 45° C. to obtain a final concentration of 4 percent.
(§6) The seeded agar media thus prepared are dispensed into petri dishes for assays (11 ml per dish).
(§7) The samples to be tested for production of antifungal agent are applied to 6.2 mm filter paper discs (25 μl/disc) and air dried at 24° C. When the sample to be tested is crude broth, it may be centrifuged prior to application. The discs bearing the material to be tested are then applied employing sterile conditions to the seeded assay plates. The assay plates are then incubated at either 28° C. or 37° C. for 24 hours. In one of the assays for Bacillus subtilis, the sample is applied to a disc previously impregnated with 4M potassium chloride at 25 μl/disc and then air dried.
(§8) Following incubation, the inhibition zones are measured and recorded. The measurements are made from the extreme edge where growth differs from the background zone. The zones are noted as to appearance as fuzzy edge and clear center, hazy throughout, slightly hazy, very hazy or ringed.
(§9) FISP data is reported as the diameter (in mm.) of the zone of inhibition of growth in agar diffusion assays. The zone is determined by measuring growth that differs from the background lawn. A qualifier is also added to describe the zone quality as listed below: no qualifier: clear zone throughout, sharp edges

For the next assay, the system named is Cephalosporium sp. Further details: key: F: clear zone, fuzzy edges; S: slightly hazy zone (some growth observed throughout zone); H: hazy zone (considerable growth observed throughout zone); V: very hazy zone (zone of inhibition is barely discernable); R: zone displays a ring of resistant growth; no qualifier: clear zone throughout, sharp edges. The settings on record: 250 μg/ml in CH2Cl2.
Text: as §1, §2, §3, §4, §5, §6, §7, §8, §9

Another assay relates to Cercospora beticola. Also on record: key: F: clear zone, fuzzy edges; S: slightly hazy zone (some growth observed throughout zone); H: hazy zone (considerable growth observed throughout zone); V: very hazy zone (zone of inhibition is barely discernable); R: zone displays a ring of resistant growth; no qualifier: clear zone throughout, sharp edges. The settings on record: 250 μg/ml in CH2Cl2.
Text: as §1, §2, §3, §4, §5, §6, §7, §8, §9

For a further assay, the system named is Fusarium oxysporum. Also on record: key: F: clear zone, fuzzy edges; S: slightly hazy zone (some growth observed throughout zone); H: hazy zone (considerable growth observed throughout zone); V: very hazy zone (zone of inhibition is barely discernable); R: zone displays a ring of resistant growth; no qualifier: clear zone throughout, sharp edges. Conditions: 250 μg/ml in CH2Cl2.
Text: as §1, §2, §3, §4, §5, §6, §7, §8, §9

The next assay relates to Penicillium sp. Further details: key: F: clear zone, fuzzy edges; S: slightly hazy zone (some growth observed throughout zone); H: hazy zone (considerable growth observed throughout zone); V: very hazy zone (zone of inhibition is barely discernable); R: zone displays a ring of resistant growth; no qualifier: clear zone throughout, sharp edges. Conditions: 250 μg/ml in CH2Cl2.
Text: as §1, §2, §3, §4, §5, §6, §7, §8, §9

The next assay relates to Phoma sp. Further details: key: F: clear zone, fuzzy edges; S: slightly hazy zone (some growth observed throughout zone); H: hazy zone (considerable growth observed throughout zone); V: very hazy zone (zone of inhibition is barely discernable); R: zone displays a ring of resistant growth; no qualifier: clear zone throughout, sharp edges. The settings on record: 250 μg/ml in CH2Cl2.
Text: as §1, §2, §3, §4, §5, §6, §7, §8, §9

The subject of the next assay is Trichoderma lignorum. Further details: key: F: clear zone, fuzzy edges; S: slightly hazy zone (some growth observed throughout zone); H: hazy zone (considerable growth observed throughout zone); V: very hazy zone (zone of inhibition is barely discernable); R: zone displays a ring of resistant growth; no qualifier: clear zone throughout, sharp edges. Conditions: 250 μg/ml in CH2Cl2.
Text: as §1, §2, §3, §4, §5, §6, §7, §8, §9

Another assay has as its system Trichoderma sp. Further details: key: F: clear zone, fuzzy edges; S: slightly hazy zone (some growth observed throughout zone); H: hazy zone (considerable growth observed throughout zone); V: very hazy zone (zone of inhibition is barely discernable); R: zone displays a ring of resistant growth; no qualifier: clear zone throughout, sharp edges. Conditions: 250 μg/ml in CH2Cl2.
Text: as §1, §2, §3, §4, §5, §6, §7, §8, §9

A further assay deals with Ustilago maydis. Also on record: key: F: clear zone, fuzzy edges; S: slightly hazy zone (some growth observed throughout zone); H: hazy zone (considerable growth observed throughout zone); V: very hazy zone (zone of inhibition is barely discernable); R: zone displays a ring of resistant growth; no qualifier: clear zone throughout, sharp edges. Conditions: 250 μg/ml in CH2Cl2.
Text: as §1, §2, §3, §4, §5, §6, §7, §8, §9

The next assay deals with Verticillium serrae. Further details: key: F: clear zone, fuzzy edges; S: slightly hazy zone (some growth observed throughout zone); H: hazy zone (considerable growth observed throughout zone); V: very hazy zone (zone of inhibition is barely discernable); R: zone displays a ring of resistant growth; no qualifier: clear zone throughout, sharp edges. The settings on record: 250 μg/ml in CH2Cl2.
Text: as §1, §2, §3, §4, §5, §6, §7, §8, §9

A further assay concerns Streptomyces sp. Also on record: key: F: clear zone, fuzzy edges; S: slightly hazy zone (some growth observed throughout zone); H: hazy zone (considerable growth observed throughout zone); V: very hazy zone (zone of inhibition is barely discernable); R: zone displays a ring of resistant growth; no qualifier: clear zone throughout, sharp edges. Conditions: 250 μg/ml in CH2Cl2. How it is done: as §1
The bacteria employed in the assay are Streptomyces sp., Acholeplasma laidlawii and Bacillus subtilis.
as §3
(§10) Inocula for yeasts and bacterial strains are prepared from overnight broth cultures then diluted into potato dextrose agar to a final concentration of either 40 percent or 70 percent transmission at 660 nm.
as §6
The samples to be tested for production of antifungal agent are applied to 6.2 mm filter paper discs (25 μl/disc) and air dried at 24° C. When the sample to be tested is crude broth, it may be centrifuged prior to application. The discs bearing the material to be tested are then applied employing sterile conditions to the seeded assay plates. The assay plates are then incubated at either 28° C. or 37° C. for 24 hours. […]
(§11) Following incubation, the inhibition zones are measured and recorded. […]
(§12) FISP data is reported as the diameter (in mm.) of the zone of inhibition of growth in agar diffusion assays. The zone is determined by measuring growth that differs from the background lawn. […]

A further assay has as its system Candida guilliermondii. Conditions: Meyerozyma guilliermondii; 250 μg/ml in CH2Cl2; read-out: diameter of the zone of inhibition of growth.
Text: as §1
(§13) The yeasts employed in the assay are Saccharomyces cerevisiae, Candida albicans, Candida tropicalis, Candida rugosa, Brettanomyces bruxellensis, Torulospora hansenii, Candida guilliermondi, Candida pseudotropicalis, Torulopsis glabrata, Cryptococcus albidus, Cryptococcus laurentii and Kluyveromyces fragilis.
as §3, §10, §5
(§14) The seeded agar media thus prepared are dispensed into petri dishes for assays (11 ml per dish). […]
as §11, §12

A further assay relates to Torulopsis glabrata. Conditions: Nakaseomyces glabratus; 250 μg/ml in CH2Cl2; read-out: diameter of the zone of inhibition of growth.
Text: as §1, §13, §3, §10, §5, §14, §11, §12

In the case of `CC(/C=C/C=C(\C)C(O)C(C)C(=O)O[C@H]1C[C@H](C)C=C2C=C[C@@]3(C)O[C@@H](O)CC(=O)[C@]3(C)[C@H]21)=C\C=C\C(=O)O` (stereo partly shown) [Compound A], the zone quality qualifier result in the assay on Alternaria solani was “F”; with Cephalosporium sp., “F”; with Cercospora beticola, “S”; with Fusarium oxysporum, “S”; with Penicillium sp. it was “H”; with Phoma sp., “S”. Moreover, the zone quality qualifier result in the assay on Trichoderma lignorum is “F”; with Trichoderma sp., “S”; with Ustilago maydis, “V”; with Verticillium serrae it was “S”; in the assay with Streptomyces sp., “V”. The zone of inhibition at 250 µg/mL in the assay with Candida guilliermondii and in the assay with Torulopsis glabrata was 0 mm in each case.
